The structures appear in SMILES notation. Activity calls are given as the source filed them. The rule behind the calls is not given here.

For this test, the system named is P. yoelii liver stage in HepG2-A16-CD81EGFP, imaging. Nature of the test: exo-erythrocytic parasite development inhibition – imaging, Malaria Box, P. yoelii, HepG2-A16-CD81EGFP, dose response (AID 602156).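 Note: infected cells exposed to compound for 48 hours before fixation.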

As to `N#Cc1c2c(c(N3CCN(Cc4ccccc4)CC3)n3c1nc1ccccc13)CCC2`, the IC50 was > 10000 nM (inactive). `Cn1cnnc1SCC(=O)Nc1ccccc1C(F)(F)F`: the IC50 is > 10000 nM (inactive).

As for `COc1cccc(-c2cncc(-c3cncc(OC)c3)n2)c1`, the IC50 is > 10000 nM (inactive).

Regarding `COc1ccc2nc(C)cc(Nc3ccc(Oc4ccc(Cl)c5ccccc45)c(Cl)c3)c2c1`, the 50% inhibitory concentration (IC50) was 267 nM. Consider `N#Cc1ccc(NC(=O)NC2CC3CCCC(C2)N3CCc2ccccc2)cc1` (configuration not stated), for which the IC50 is 497 nM.

For `COc1ccc(C(NC(=O)c2cccnc2)c2cc(Cl)c3cccnc3c2O)cc1` (configuration not stated), the IC50 was 542 nM. For the compound `CCCCCC[P+](N(CCC)CCC)(N(CCC)CCC)N(CCC)CCC`, the concentration for half-maximal inhibition (IC50) is 49.1 nM. `COc1ccc(CN2CCOc3ccc(C(C)(O)CN(C)C)cc3C2)cc1C` (configuration not stated): the half-inhibitory concentration (IC50) was 67.5 nM. As for `O=c1c2c([nH]c3ccccc13)CCCCCCCCCC2`, the figure is 99 nM; as for `Nc1cccc(C(=O)Nc2ccc(Oc3cccc(Oc4ccc(NC(=O)c5cccc(N)c5)cc4)c3)cc2)c1`, 1760 nM; as for `C[C@@H]1CCC[C@@H](C[C@H]2Cc3cc(O)cc(O)c3C(=O)O2)O1`, 112 nM. Regarding `CCNC(=O)C1CCN(c2cccc3c2C(=O)N(C2CCCCCCC2)C3=O)CC1`, the IC50 is 269 nM.

`CCOC(=O)C1=C(C)NC2=C(C(=O)C(C(=O)OCC)C(c3ccc(OC)cc3)C2)C1c1ccc(OC)c(OC)c1` (configuration not stated): the IC50 is 240 nM. `CCOC(=O)C1=C(c2ccccc2)N=c2sc(=Cc3cc(C)n(-c4ccc(F)cc4)c3C)c(=O)n2C1c1cccc(OC)c1OC` (configuration not stated): the IC50 was 2450 nM. As for `Brc1ccc(Nc2nc(NCc3ccco3)c3ccccc3n2)cc1`, the figure is 163 nM.

Regarding `CC(C)(C)C1CCc2[nH]c3ccccc3c(=O)c2C1` (configuration not stated), the IC50 is 98.3 nM. Turning to `Cc1cc(Nc2cccc(F)c2)nc(NCc2ccccc2)n1`, the IC50 was 1110 nM.

As to `CCCCCc1ccc(OCCCC[n+]2cccc(C)c2)c(CCCCC)c1`, the 50% inhibitory concentration (IC50) was 34.6 nM.

Consider `O=C(C1CC1)N1CCc2cc(Br)cc(S(=O)(=O)N3CCCC3)c21`, for which the IC50 is > 10000 nM (inactive). Take `COc1cc(C(=O)Nc2ccc3nc4n(c(=O)c3c2)CCCCC4)cc(OC)c1OC`: the IC50 is > 10000 nM (inactive).

Take `O=C(Nc1ccc(-c2nc3ccccc3[nH]2)cc1)c1ccc(-c2ccc(Cl)cc2)o1`: the IC50 is 6650 nM. Next, `Cc1cccc(N2C(N)=NC(N)=NC2(C)C)c1`: 4.25 nM; `CCN1CCN(c2c(C(=O)c3ccccc3)cnc3cc(OC)c(OC)cc23)CC1`: 367 nM. As for `Cc1ccc(-c2cc(C(=O)OCC(=O)c3cccc([N+](=O)[O-])c3)c3cc(C)ccc3n2)cc1`, the figure is > 10000 nM (inactive); as for `CCCCCC[n+]1ccccc1/C=C/c1ccc(N(C)C)cc1`, 55.9 nM; as for `COc1ccccc1CNC(=O)c1nn(-c2ccc(Cl)cc2)c(=O)c2ccccc12`, > 10000 nM (inactive).

As for `c1ccc(Nc2ccnc(Nc3ccccc3)n2)cc1`, the IC50 was 1480 nM. For the compound `CCc1ccccc1NC(C)=O`, the IC50 is > 10000 nM (inactive).

As to `CCCCN(CC)CCNC(=O)C1c2ccccc2C(=O)N(Cc2ccc(F)cc2)C1c1ccc(OC)cc1` (configuration not stated), the half-inhibitory concentration (IC50) was 89.1 nM. As to `CCCCSCC(O)CN1CCCCC1` (configuration not stated), the IC50 was > 10000 nM (inactive). Next, `C=CCc1c(C)[nH]c2ccc(Br)cc2c1=O`: 181 nM; `Cc1[nH]c2ccc(Br)cc2c(=O)c1CC(C)C`: 244 nM; `Cc1cccc(-c2cc3nc(C)c(C)c(=O)n3[nH]2)c1`: 1100 nM. Regarding `O=C1C(Nc2ccc(O)cc2)=CC(=NS(=O)(=O)c2cccs2)c2ccccc21`, the 50% inhibitory concentration (IC50) was 85.6 nM. Take `CC(C)NC(=O)c1cc(NC(=O)c2cccs2)ccc1N1CCc2ccccc2C1`: the 50% inhibitory concentration (IC50) is 74.8 nM. `CCCCCCN(C(=O)COc1ccccc1)C(CC)c1nc2ccccc2c(=O)n1-c1cccc(Cl)c1` (configuration not stated): the IC50 was > 10000 nM (inactive). Take `Cc1[nH]c2c(C)cccc2c(=O)c1CC=C(Cl)Cl`: the IC50 was 169 nM.

The values are drawn from PubChem BioAssay AID602156 (GNF / Scripps Winzeler lab, 2011).
